In patent publication US4413007A, “Pesticidal symmetrical N-substituted bis-carbamoyloximino disulfide compounds” (priority 1978, dated 1983):

Key:
Format in all cases: in vivo
[1] = test system: bean aphid (Aphis fabae Scop.); assay: Bean Aphid Foliage Spray Test; parameters: key: A: excellent control; B: partial control; C: no control; details: 500 ppm, 24 hour holding period
Experimental: (§1) Suspensions of the test compounds were prepared by dissolving one gram of compound in 50 milliliters of acetone in which had been dissolved 0.1 gram (10 percent of the weight of compound) of an alkylphenoxy polyethoxyethanol surfactant, as an emulsifying or dispersing agent. The resulting solution was mixed into 150 milliliters of water to give roughly 200 milliliters of a suspension containing the compound in finely divided form. The thus-prepared stock suspension contained 0.5 percent by weight of compound. The test concentrations in parts per million by weight employed in the tests described hereinbelow were obtained by appropriate dilutions of the stock suspension with water. The test procedures were as follows:
Adults and nymphal stages of the bean aphid (Aphis fabae Scop.) reared on potted dwarf nasturtium plants at 65°-70° F. and 50-70 percent relative humidity, constituted the test insects. For testing purposes, the number of aphids per pot was standardized to 100-150 by trimming plants containing excess aphids.
The test compounds were formulated by diluting the stock suspension with water to give a suspension containing 500 parts of test compound per million parts of final formulation.
The potted plants (one pot per compound tested) infested with 100-150 aphids, were placed on a revolving turntable and sprayed with 100-110 milliliters of test compound formulation by use of a DeVilbiss spray gun set at 40 psig. air pressure. This application, which tested 25 seconds, was sufficient to wet the plants to run-off. As a control, 100-110 milliliters of a water-acetone-emulsifier solution containing no test compound were also sprayed on infested plants. After spraying, the pots were placed on their sides on a sheet of white standard mimeograph paper which had been previously ruled to facilitate counting. Temperature and humidity in the test room during the 24 hour holding period were 65°-70° F. and 50-70 percent, respectively. Aphids which fell onto the paper and were unable to remain standing after being uprighted were considered dead. Aphids remaining on the plants were observed closely for movement and those which were unable to move the length of the body upon stimulation by prodding were considered dead. Percent mortality was recorded for various concentration levels.
(§2) In these tests the pesticidal activity of the compounds against aphid, mite, Southern Armyworm, Bean Beetle and house fly was rated as follows: […]

[2] = test system: two-spotted mite (Tetranychus urticae Koch); assay: Mite Foliage Spray Test; parameters: key: A: excellent control; B: partial control; C: no control; details: 500 ppm, six days
Experimental: as §1
Adults and nymphal stages of the two-spotted mite (Tetranychus urticae Koch), reared on Tendergreen bean plants at 80±5 percent relative humidity, were the test organisms. Infested leaves from a stock culture were placed on the primary leaves of two bean plants six to eight inches in height, growing in a two-and-a-half inch clay pot. 150-200 Mites, a sufficient number for testing, transferred from the excised leaves to the fresh plants in a period of twenty four hours. Following the twenty four hour transfer period, the excised leaves were removed from the infested plants. The test compounds were formulated by diluting the stock suspension with water to give a suspension containing 500 parts of test compound per million parts of final formulation. The potted plants (one pot per compound) were placed on a revolving turntable and sprayed with 100-110 milliliters of test compound formulation by use of a DeVilbiss spray gun set at 40 psig. air pressure. This application, which lasted 25 seconds, was sufficient to wet the plants to run-off. As a control, 100-110 milliliters of a water solution containing acetone and emulsifier in the same concentrations as the test compound formulation, but containing no test compound, were also sprayed on infested plants. The sprayed plants were held at 80±5 percent relative humidity for six days, after which a mortality count of motile forms was made. Microscopic examination for motile forms was made on the leaves of the test plants. Any individual which was capable of locomotion upon prodding was considered living.
as §2

[3] = test system: southern armyworm (Prodenia eridania, (Cram.)); assay: Southern Armyworm Leaf Spray Test; parameters: key: A: excellent control; B: partial control; C: no control; details: 500 ppm, three days
Experimental: as §1
Larvae of the southern armyworm (Prodenia eridania, (Cram.)), reared on Tendergreen bean plants at a temperature of 80±5° F. and a relative humidity of 50±5 percent, constituted the test insects.
The test compounds were formulated by diluting the stock suspension with water to give a suspension containing 500 parts of test compound per million parts of final formulation. Potted Tendergreen bean plants of standard height and age were placed on a revolving turntable and sprayed with 100-110 milliliters of test compound formulation by use of a DeVilbiss spray gun set at 10 psig air pressure. This application, which tested 25 seconds, was sufficient to wet plants to run-off. As a control, 100-110 milliliters of a water-acetone-emulsifier solution containing no test compound were also sprayed on infested plants. When dry, the paired leaves were separated and each one was placed in a 9 centimeter Petri dish lined with moistened filter paper. Five randomly selected larvae were introduced into each dish and the dishes were closed. The closed dishes were labeled and held at 80°-85° F. for three days. Although the larvae could easily consume the whole leaf within twenty-four hours, no more food was added. Larvae which were unable to move the length of the body, even upon stimulation by prodding, were considered dead. Percent mortality was recorded for various concentration levels.
as §2

[4] = test system: Mexican bean beetle (Epilachna varivestis, Muls.); assay: Mexican Bean Beetle Leaf Spray Test; parameters: key: A: excellent control; B: partial control; C: no control; details: 500 ppm, three days
Experimental: as §1
Fourth instar larvae of the Mexican bean beetle (Epilachna varivestis, Muls.), reared on Tendergreen bean plants at a temperature of 80±5° F. and 50±5 percent relative humidity, were the test insects.
The test compounds were formulated by diluting the stock suspension with water to give a suspension containing 500 parts of test compound per million parts of final formulation. Potted Tendergreen bean plants of standard height and age were placed on a revolving turntable and sprayed with 100-110 milliliters of test compound formulation by use of a DeVilbiss spray gun set at 10 psig air pressure. The application, which lasted 25 seconds, was sufficient to wet plants to run-off. As a control, 100-110 milliliters of a water-acetone-emulsifier solution containing no test compound were also sprayed on infested plants. When dry, the paired leaves were separated and each was placed in a 9 centimeter Petri dish lined with moistened filter paper. Five randomly selected larvae were introduced into each dish, and the dishes were closed. The closed dishes were labeled and held at a temperature of 80±5° F. for three days. Although the larvae could easily consume the leaf within 24 to 48 hours, no more food was added. Larvae which were unable to move the length of the body, even upon stimulation, were considered dead.
as §2

[5] = test system: house flies (Musca domestica, L.); assay: Fly Bait Test; parameters: key: A: excellent control; B: partial control; C: no control; details: 500 ppm in sugar solution, twenty four hours
Experimental: as §1
Four to six day old adult house flies (Musca domestica, L.) reared according to the specifications of the Chemical Specialities Manufacturing Association (Blue Book, McNair-Dorland Co., N.Y. 1954; pages 243-244, 261) under controlled conditions of 80±5° F. and 50±5 percent relative humidity, were the test insects. The flies were immobilized by anesthetizing with carbon dioxide and twenty five immobilized individuals,males and females, were transferred to a cage consisting of a standard food strainer about five inches in diameter which was inverted over a wrapping-paper-covered surface. The test compounds were formulated by diluting the stock suspension with a 10 percent (by weight) sugar solution to give a suspension containing 500 parts of test compound per million parts of final formulation, by weight. Ten milliliters of the test formulation were added to a souffle cup containing a one-inch square of an absorbent cotton pad. This bait cup was introduced and centered on the blotting paper under the food strainer prior to admitting the anesthetized flies. The caged flies were allowed to feed on the bait for twenty four hours, at a temperature of 80±5° F. and the relative humidity of 50±5 percent.
as §2

[6] = test system: root-knot nematode (Meloidogyne incognita var. acrita); assay: Nematode Test; parameters: key: 1: severe galling; equal to untreated control; 2: moderate galling; 3: light galling; 4: very light galling; 5: no galling; details: 10 ml of 500 ppm formulation per jar (approx. 180 cc soil), cucumber indicator crop, approx. three weeks
Experimental: as §1
Infective migratory larvae of the root-knot nematode, (Meloidogyne incognita var. acrita) were reared in the greenhouse on roots of Rutgers variety tomato plant. Infected tomato plants were removed from the culture and the roots were chopped very finely. A small amount of inoculum from the roots was added to pint Mason jars containing approximately 180 cc of soil. The jars containing the inoculum and soil were capped and incubated for one week at room temperature. During this period eggs of the nematode hatched and the larvae forms migrated into the soil.
The test compounds were formulated by diluting the stock suspension with water to give a suspension containing 500 parts of test compound per million parts of final formulation. 10 milliliters of the test formulation was added to each of two jars for each dosage treated. As a control 10 milliliters of a water-acetone-emulsifier solution containing no test compound was also added to jars containing nematode larvae. The jars were capped and the contents thoroughly mixed on a kale mill for five minutes. The jars remained capped at room temperature for a period of 48 hours and the contents were then transferred to 3 inch pots. Subsequently, the pots were seeded to cucumber as an indicator crop and placed in the green house where they were cared for in the normal fashion for growing potted cucumber for approximately three weeks. These cucumber plants were then removed from the pots, the soil washed from the roots and the amount of galling visually rated.
The nematocidal toxicity has the following ratings;

CC(=NOC(=O)N(C)SSN(C)C(=O)ON=C(C)[S+](C)[O-])[S+](C)[O-] (stereo not shown) [N,N'--Bis-[1-Methylsulfinylacetaldehyde O--(N--methylcarbamoyl)oxime] disulfide]
Bean Aphid control rating [1]: C | 2-Spotted Mite control rating [2]: C | Southern Armyworm control rating [3]: B | Mexican Bean Beetle control rating [4]: A | House-Fly control rating [5]: A | Root-Knot Nematode galling rating [6]: 1

CN=C1SC(=NOC(=O)N(C)SSN(C)C(=O)ON=C2SC(=NC)SC2(C)C)C(C)(C)S1 [N,N'--Bis-[2-Methylimino-4,4-dimethyl-5-(O--(N--methyl-carbamoyl)oximino-1,3-dithiolane]disulfide]
Bean Aphid control rating [1]: A | 2-Spotted Mite control rating [2]: B | Southern Armyworm control rating [3]: A | Mexican Bean Beetle control rating [4]: A | House-Fly control rating [5]: A | Root-Knot Nematode galling rating [6]: 4

CC(C)N1C(=O)C(C)(C)SC1=NOC(=O)N(C)SSN(C)C(=O)ON=C1SC(C)(C)C(=O)N1C(C)C [N,N'--Bis-[3-Isopropyl-5,5-dimethyl-2-(O--(N--methylcarbamoyl)oximino)-1,3-thiazolidin-4-one] disulfide]
Bean Aphid control rating [1]: A | 2-Spotted Mite control rating [2]: C | Southern Armyworm control rating [3]: B | Mexican Bean Beetle control rating [4]: A | House-Fly control rating [5]: C

CC(=NOC(=O)N(C)SSN(C)C(=O)ON=C(C)SC(C)C)SC(C)C [N,N'-Bis-[1-Isopropylthioacetaldehyde O-(N-methylcarbamoyl)oxime]disulfide]
Bean Aphid control rating [1]: A | 2-Spotted Mite control rating [2]: A | Southern Armyworm control rating [3]: A | Mexican Bean Beetle control rating [4]: A | House-Fly control rating [5]: A | Root-Knot Nematode galling rating [6]: 4

CN(SSN(C)C(=O)ON=CC(C)(C)S(C)(=O)=O)C(=O)ON=CC(C)(C)S(C)(=O)=O [N,N'-Bis-[2-Methylsulfonyl-2-methylpropionaldehyde O-(N-methylcarbamoyl)oxime]disulfide]
Bean Aphid control rating [1]: C | 2-Spotted Mite control rating [2]: B | Southern Armyworm control rating [3]: C | Mexican Bean Beetle control rating [4]: C | House-Fly control rating [5]: A | Root-Knot Nematode galling rating [6]: 4

CN(SSN(C)C(=O)ON=C1SCCS1)C(=O)ON=C1SCCS1 [N,N'-bis-[2-(O-(N-Methylcarbamoyl)oximino)-1,3-dithiolane]disulfide]
Bean Aphid control rating [1]: A | 2-Spotted Mite control rating [2]: C | Southern Armyworm control rating [3]: A | Mexican Bean Beetle control rating [4]: A | House-Fly control rating [5]: A | Root-Knot Nematode galling rating [6]: 5

CN(SSN(C)C(=O)ON=CC(C)(C)C#N)C(=O)ON=CC(C)(C)C#N [N,N'-bis-[2-Cyano-2-methylpropionaldehyde O-(N-methylcarbamoyl)oxime]disulfide]
Bean Aphid control rating [1]: A | 2-Spotted Mite control rating [2]: A | Southern Armyworm control rating [3]: A | Mexican Bean Beetle control rating [4]: A | House-Fly control rating [5]: A | Root-Knot Nematode galling rating [6]: 4

CSC(C)(C)C=NOC(=O)N(C)SSN(C)C(=O)ON=CC(C)(C)SC [N,N'-bis-[2-methylthio-2-methylpropionaldehyde O-(N-methylcarbamoyl)oxime]disulfide]
Bean Aphid control rating [1]: A | 2-Spotted Mite control rating [2]: A | Southern Armyworm control rating [3]: A | Mexican Bean Beetle control rating [4]: A | House-Fly control rating [5]: A | Root-Knot Nematode galling rating [6]: 5

CN1CCSC(=NOC(=O)N(C)SSN(C)C(=O)ON=C2SCCN(C)C2=O)C1=O [N,N'-bis-[4-Methyl-2-(O-(N-methylcarbamoyl)oximino)tetrahydro-1,4-thiazin-3-one]disulfide]
Bean Aphid control rating [1]: A | 2-Spotted Mite control rating [2]: A | Southern Armyworm control rating [3]: A | Mexican Bean Beetle control rating [4]: A | House-Fly control rating [5]: A

CC1OCSC1=NOC(=O)N(C)SSN(C)C(=O)ON=C1SCOC1C (stereo not shown) [N,N'-bis-[5-Methyl-4-(O-(N-methylcarbamoyl)oximino)-1,3-oxathiolane]disulfide]
Bean Aphid control rating [1]: A | 2-Spotted Mite control rating [2]: A | Southern Armyworm control rating [3]: A | Mexican Bean Beetle control rating [4]: A | House-Fly control rating [5]: A | Root-Knot Nematode galling rating [6]: 1
